Patent US6410525B1, “Carbapenem derivatives, utilization thereof and intermediate compounds of the same” (Kyoto Pharmaceutical Industries, Ltd., priority 1998, dated 2002)

Assay: Oral absorption test: concentration of hydrolyzed carbapenem compound (A) in plasma after oral administration
Format: in vivo
Details: mice, 100 mg/kg orally, hydrolyzed carbapenem compound (A) by HPLC
Experimental: The compound of the present invention (100 mg/kg, compound of Example 13) was orally administered to mice (3 per group) and the concentration of hydrolyzed carbapenem compound (A) in plasma was determined at 0.25, 0.5, 1.0, 2.0 and 3.0 hours later by HPLC.
The compound of the present invention (100 mg/kg, compound of Example 15) was orally administered to mice (3 per group) and the concentration of hydrolyzed carbapenem compound (A) in plasma was determined at 0.25, 0.5, 1.0, 2.0 and 3.0 hours later by HPLC.

Row | SMILES | Average concentration in plasma (0.25 hr) | Average concentration in plasma (0.5 hr) | Average concentration in plasma (1.0 hr) | Average concentration in plasma (2.0 hr) | Average concentration in plasma (3.0 hr)
1 | CCC(=O)OCOC(=O)N1C[C@@H](SC2=C(C(=O)OCOC(=O)C(C)(C)C)N3C(=O)[C@H]([C@@H](C)O)[C@H]3[C@H]2C)C[C@H]1C(=O)N(C)C [Example 13] | 9.5 µg/mL | 4.8 µg/mL | 1.9 µg/mL | 0.6 µg/mL | 0.2 µg/mL
2 | CC(C)C(=O)OCOC(=O)N1C[C@@H](SC2=C(C(=O)OCOC(=O)C(C)(C)C)N3C(=O)[C@H]([C@@H](C)O)[C@H]3[C@H]2C)C[C@H]1C(=O)N(C)C [Example 15, pivaloyloxymethyl (1R,5S,6S)-2-[(3S,5S)-(5-N,N-dimethylaminocarbonyl-1-isobutyryloxymethyloxycarbonyl)pyrrolidin-3-ylthio]-6-[(1R)-1-hydroxyethyl]-1-methylcarbapen-2-em-3-carboxylate] | 8.6 µg/mL | 10.1 µg/mL | 4.8 µg/mL | 1.4 µg/mL | 0.3 µg/mL
